From US5053006A, “Method for the permanent occlusion of arteries” (priority 1990, dated 1991)

Legend:
[1] = in vivo; cited from earlier work
[2] = Absorption / excitation of the dye in tissue; type: physicochemical; settings: endothelial tissue
Description: Examples of lasers that can be used to provide the light beam include the He-Ne laser, the argon ion laser and the argon-pumped dye laser. The 543.5 nm He-Ne laser, for example, can excite rose bengal with an efficiency of 58% of the maximum. (The wavelength at which excitation efficiency for rose bengal is maximal in tissue occurs at 562 nm.) Because the maximum theoretical power output is only 4 or 5 milliwatts, the 543.5 nm He-Ne laser is not used in clinical applications at this time. However, this laser is expected to be particularly useful in permanently occluding relatively low-flow arteries, smaller than about 200 μm, such as those in the choroid of the eye.
The argon ion laser is the most common clinical laser used at this time. Although the commonly used argon 514.5 nm line is only 36% efficient with respect to the maximum of rose bengal absorption, this laser is much more powerful (by at least a factor of 1000) and versatile than the He-Ne laser.
The absorption maximum of erythrosin B in endothelial tissue is at 536 nm, which is closer than that of rose bengal to the standard 514.5 nm wavelength of the argon ion laser.

middle cerebral artery = test: Erythrosin B photothrombotic occlusion of middle cerebral artery; type: in vivo, rat
[3] = compared with rose bengal; cited from earlier work

**Q.** With “dihematoporphyrin ether [dihematoporphyrin ether derivative]” as the compound, how does the half life [1] read?
**A.** The half life was “so long”.

**Q.** Which results are given for `O.O=C([O-])c1ccccc1-c1c2cc(I)c(=O)c(I)c-2oc2c(I)c([O-])c(I)cc12.[Na+].[Na+]` [erythrosin B]?
**A.** absorption maximum in endothelial tissue [2]: 536 nm; photothrombotic efficiency in vivo (middle cerebral artery; 514.5 nm argon line, vs rose bengal): comparable photothrombotic efficiency; photothrombotic occlusion of rat MCA (middle cerebral artery; i.v., argon ion laser, 680 μM blood concentration): photothrombotically occlude the rat middle cerebral artery in the same fashion as rose bengal; quantum efficiency for singlet oxygen production [3]: slightly less
